{"source": "ChEMBL document CHEMBL1150112", "about": "“Enhancement of contraction of rat mesenteric artery by acteoside: role of endothelial nitric oxide” (J Nat Prod, 2002)", "key": {"[1]": {"tested_on": "Mesenteric artery", "test": "Potentiation of phenylepinephrine-induced contraction in endothelium-intact Sprague-Dawley rat mesenteric artery at 30 umol/L after 30 mins", "format": "functional, tissue-based"}, "[2]": {"tested_on": "Mesenteric artery", "test": "Potentiation of phenylepinephrine-induced contraction in endothelium-intact Sprague-Dawley rat mesenteric artery at 100 to 300 umol/L after 30 mins", "format": "functional, tissue-based"}, "[3]": {"tested_on": "Mesenteric artery", "test": "Potentiation of phenylepinephrine-induced contraction in endothelium-denuded Sprague-Dawley rat mesenteric artery at 30 umol/L after 30 mins", "format": "functional, tissue-based"}, "[4]": {"tested_on": "Mesenteric artery", "test": "Potentiation of phenylepinephrine-induced contraction in endothelium-intact Sprague-Dawley rat mesenteric artery at 30 umol/L after 30 mins in presence of NG-nitro-L-arginine methyl ester", "format": "functional, tissue-based"}, "[5]": {"tested_on": "Mesenteric artery", "test": "Potentiation of phenylepinephrine-induced contraction in endothelium-intact Sprague-Dawley rat mesenteric artery at 30 umol/L after 30 mins in presence of NG-nitro-L-arginine", "format": "functional, tissue-based"}, "[6]": {"tested_on": "Mesenteric artery", "test": "Enhancement of phenylepinephrine-induced contraction in endothelium-intact Sprague-Dawley rat mesenteric artery at 30 umol/L after 30 mins in presence of co-treated 1H-[1,2,4]oxadiazolo[…]quinoxalin-1-one", "format": "functional, tissue-based"}, "[7]": {"tested_on": "Mesenteric artery", "test": "Potentiation of phenylepinephrine-induced vessel tension in endothelium-intact Sprague-Dawley rat mesenteric artery at 30 umol/L in presence of pretreated indomethacin", "format": "functional, tissue-based"}, "[8]": {"tested_on": "Mesenteric artery", "test": "Increase in phenylepinephrine-induced vessel tension in endothelium-intact Sprague-Dawley rat mesenteric artery at 30 umol/L in presence of tetraethylammonium", "format": "functional, tissue-based"}, "[9]": {"tested_on": "Artery", "test": "Attenuation of acetylcholine-induced vasorelaxation in endothelium-intact Sprague-Dawley rat mesenteric artery at 30 umol/L after 30 mins", "format": "functional, tissue-based"}, "[10]": {"tested_on": "Artery", "test": "Change in hydroxylamine-induced vasorelaxation in endothelium-denuded Sprague-Dawley rat mesenteric artery at 30 umol/L after 30 mins", "format": "functional, tissue-based"}, "[11]": {"tested_on": "Artery", "test": "Change in sodium nitroprusside-induced vasorelaxation in endothelium-denuded Sprague-Dawley rat mesenteric artery at 30 umol/L after 30 mins", "format": "functional, tissue-based"}, "[12]": {"tested_on": "Artery", "test": "Attenuation of forskolin-induced vasorelaxation in endothelium-denuded Sprague-Dawley rat mesenteric artery at 30 umol/L", "format": "functional, tissue-based"}, "[13]": {"tested_on": "Artery", "test": "Change in NS 1619-induced vasorelaxation in endothelium-denuded Sprague-Dawley rat mesenteric artery at 30 umol/L", "format": "functional, tissue-based"}, "[14]": {"tested_on": "Mesenteric artery", "test": "Potentiation of phenylepinephrine-induced contraction in endothelium-intact Sprague-Dawley rat mesenteric artery after 30 mins", "format": "functional"}, "[15]": {"test": "Vasorelaxant activity in endothelium-intact Sprague-Dawley rat vascular smooth muscle at > 100 umol/L", "format": "functional"}}, "note": "The source made the active and inactive calls. No cut-off for these calls is given here.", "data": [{"smiles": "C[C@@H]1O[C@@H](O[C@@H]2[C@@H](O)[C@H](OCCc3ccc(O)c(O)c3)O[C@H](CO)[C@H]2OC(=O)/C=C/c2ccc(O)c(O)c2)[C@H](O)[C@H](O)[C@H]1O", "values": [{"measurement": "Activity", "setting": "[1]", "result": "Active"}, {"measurement": "Activity", "setting": "[2]", "result": "inactive"}, {"measurement": "Activity", "setting": "[3]", "result": "inactive"}, {"measurement": "Activity", "setting": "[4]", "result": "inactive"}, {"measurement": "Activity", "setting": "[5]", "result": "inactive"}, {"measurement": "Activity", "setting": "[6]", "result": "inactive"}, {"measurement": "Activity", "setting": "[7]", "result": "Active"}, {"measurement": "Activity", "setting": "[8]", "result": "inactive"}, {"measurement": "Activity", "setting": "[9]", "result": "Active"}, {"measurement": "Activity", "setting": "[10]", "result": "inactive"}, {"measurement": "Activity", "setting": "[11]", "result": "inactive"}, {"measurement": "Activity", "setting": "[12]", "result": "inactive"}, {"measurement": "Activity", "setting": "[13]", "result": "inactive"}, {"measurement": "Activity", "setting": "[14]", "result": "Dose-dependent effect"}, {"measurement": "Activity", "setting": "[15]", "result": "Active"}]}]}
